# Tests used:
# Escherichia coli = test: In vitro antibacterial evaluation: minimum inhibitory concentration (MIC), broth dilution method; type: cell-based; conditions: 18 hours at 35° C.
# Outline: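 First, organisms are seeded at 5×10^5 CFU/mL into Muller-Hinton II […]. Next, antibiotic is applied across 64-0.06 μg/mL by broth dilution (NCCLS M7-A2). Finally, the lowest inhibitory concentration is recorded as MIC.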
# Enterococcus sp. = test: as above; type: cell-based; conditions: 18 hours at 35° C.
# Outline: (§1)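 Broth dilution per NCCLS M7-A2 in Muller-Hinton II […], inoculum 5×10^5 CFU/mL, antibiotic tested over 64-0.06 μg/mL. MIC is taken as the lowest concentration that inhibits growth. Panel includes recent clinical isolates resistant to methicillin, penicillin and/or vancomycin.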
# Streptococcus sp. = test: as above; type: cell-based; conditions: 18 hours at 35° C.
# Outline: as §1
# Staphylococcus sp. = test: as above; type: cell-based
# Outline: as §1
# [1] = tested on: Staphylococcus aureus-SMITH (GC 4543); test: Acute lethal infection in mice (ED50); type: in vivo; conditions: female CD-1 mice, intraperitoneal challenge, intravenous dose 30 min. after infection, 7 day survival ratios
# Outline: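 Female CD-1 mice challenged intraperitoneally with a bacterial dose lethal to untreated controls within 24-48 h. Compound given intravenously in saline or 5% dextrose 30 min post-infection, five mice per dose; ED50 from 7-day survival pooled over 3 tests.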
# [2] = Anatomic pathology (heart and kidney histopathology) in mice; type: in vivo, CD-1 mice; conditions: 20 mg/kg intravenously daily for 9 days, microscopic histopathology on day 10
# Outline: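 Juvenile CD-1 mice (20 days old; 5 vehicle, 5 treated) received glycopeptide antibiotic 20 mg/kg i.v. daily for 9 days. Necropsied tissues formalin-fixed, paraffin-embedded, H&E stained and examined microscopically; findings graded slight to severe versus controls.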
# [3] = broth dilution, inoculum 5×10^5 CFU/mL
compound,measurement,setting,value
CC(c1ccccc1)C1NC(=O)CNC(=O)C(CO)NC(=O)C(CC2CNC(=N)N2C2OC(CO)C(O)C(O)C2O)NC(=O)C(CC2CNC(=N)N2)NC(=O)C(Cc2ccc(OC3OC(CO)C(OC4OC5COC6(OC5C(O)C4O)C4CC5CC(C4)CC6C5)C(O)C3O)cc2)NC1=O (stereo not shown) [Example 219],MIC Escherichia coli (ATCC 25922),Escherichia coli; Escherichia coli (ATCC 25922),64 µg/mL
same,MIC Escherichia coli (GC 4559),Escherichia coli; Escherichia coli (GC 4559),64 µg/mL
same,MIC Escherichia coli (GC 4560),Escherichia coli; Escherichia coli (GC 4560),4 µg/mL
same,MIC Enterococcus avium (GC 4558),Enterococcus sp.; Enterococcus avium (GC 4558),4 µg/mL
same,MIC Enterococcus faecalis (ATCC 29212),Enterococcus sp.; Enterococcus faecalis (ATCC 29212),16 µg/mL
same,MIC Enterococcus faecalis (GC 2242),Enterococcus sp.; Enterococcus faecalis (GC 2242),8 µg/mL
same,MIC Enterococcus faecalis (GC 2691),Enterococcus sp.; Enterococcus faecalis (GC 2691),8 µg/mL
same,MIC Enterococcus faecalis (GC 3059),Enterococcus sp.; Enterococcus faecalis (GC 3059),16 µg/mL
same,MIC Enterococcus faecalis (GC 4552),Enterococcus sp.; Enterococcus faecalis (GC 4552),8 µg/mL
same,MIC Enterococcus faecalis (GC 4553),Enterococcus sp.; Enterococcus faecalis (GC 4553),8 µg/mL
same,MIC Enterococcus faecalis (GC 4554),Enterococcus sp.; Enterococcus faecalis (GC 4554),8 µg/mL
same,MIC Enterococcus faecalis (GC 6189),Enterococcus sp.; Enterococcus faecalis (GC 6189),8 µg/mL
same,MIC Enterococcus faecium (GC 2243),Enterococcus sp.; Enterococcus faecium (GC 2243),8 µg/mL
same,MIC Enterococcus faecium (GC 4556),Enterococcus sp.; Enterococcus faecium (GC 4556),8 µg/mL
same,MIC Enterococcus faecium (GC 4557),Enterococcus sp.; Enterococcus faecium (GC 4557),4 µg/mL
same,MIC Enterococcus avium (GC 4558),Enterococcus sp.; [3],4 µg/mL
same,MIC Enterococcus faecalis (ATCC 29212),Enterococcus sp.; [3],16 µg/mL
same,MIC Enterococcus faecalis (GC 2242),Enterococcus sp.; [3],8 µg/mL
same,MIC Enterococcus faecalis (GC 2691),Enterococcus sp.; [3],8 µg/mL
same,MIC Enterococcus faecalis (GC 3059),Enterococcus sp.; [3],16 µg/mL
same,MIC Enterococcus faecalis (GC 4552),Enterococcus sp.; [3],8 µg/mL
same,MIC Enterococcus faecalis (GC 4553),Enterococcus sp.; [3],8 µg/mL
same,MIC Enterococcus faecalis (GC 4554),Enterococcus sp.; [3],8 µg/mL
same,MIC Enterococcus faecalis (GC 6189),Enterococcus sp.; [3],8 µg/mL
same,MIC Enterococcus faecium (GC 2243),Enterococcus sp.; [3],8 µg/mL
same,MIC Enterococcus faecium (GC 4556),Enterococcus sp.; [3],8 µg/mL
same,MIC Enterococcus faecium (GC 4557),Enterococcus sp.; [3],4 µg/mL
same,MIC Streptococcus agalactiae (GC 4564),Streptococcus sp.; Streptococcus agalactiae (GC 4564),2 µg/mL
same,MIC Streptococcus pneumoniae (ATCC 6301),Streptococcus sp.; Streptococcus pneumoniae (ATCC 6301),0.5 µg/mL
same,MIC Streptococcus pneumoniae (GC 1894),Streptococcus sp.; Streptococcus pneumoniae (GC 1894),1 µg/mL
same,MIC Streptococcus pneumoniae (GC 4565),Streptococcus sp.; Streptococcus pneumoniae (GC 4565),2 µg/mL
same,MIC Streptococcus pyogenes (GC 4563),Streptococcus sp.; Streptococcus pyogenes (GC 4563),2 µg/mL
same,MIC Streptococcus agalactiae (GC 4564),Streptococcus sp.; [3],2 µg/mL
same,MIC Streptococcus pneumoniae (ATCC 6301),Streptococcus sp.; [3],0.5 µg/mL
same,MIC Streptococcus pneumoniae (GC 1894),Streptococcus sp.; [3],1 µg/mL
same,MIC Streptococcus pneumoniae (GC 4565),Streptococcus sp.; [3],2 µg/mL
same,MIC Streptococcus pyogenes (GC 4563),Streptococcus sp.; [3],2 µg/mL
same,MIC Staphylococcus aureus (ATCC 29213),Staphylococcus sp.; strain ATCC 29213,4 µg/mL
same,MIC Staphylococcus aureus (GC 1131),Staphylococcus sp.; strain GC 1131,4 µg/mL
same,MIC Staphylococcus aureus (GC 3051),Staphylococcus sp.; strain GC 3051,2 µg/mL
same,MIC Staphylococcus aureus (GC 3053),Staphylococcus sp.; strain GC 3053,2 µg/mL
same,MIC Staphylococcus aureus (GC 4541),Staphylococcus sp.; strain GC 4541,2 µg/mL
same,MIC Staphylococcus aureus (GC 4542),Staphylococcus sp.; strain GC 4542,2 µg/mL
same,MIC Staphylococcus aureus-SMITH (GC 4543),Staphylococcus sp.; strain GC 4543,2 µg/mL
same,MIC Staphylococcus aureus (GC 4544),Staphylococcus sp.; strain GC 4544,8 µg/mL
same,MIC Staphylococcus aureus (GC 4545),Staphylococcus sp.; strain GC 4545,2 µg/mL
same,MIC Staphylococcus haemolyticus (GC 4546),Staphylococcus sp.; strain GC 4546,2 µg/mL
same,MIC Coagulase Negative Staphylococcus (GC 4547),Staphylococcus sp.; strain GC 4547,2 µg/mL
same,MIC Coagulase Negative Staphylococcus (GC 4548),Staphylococcus sp.; strain GC 4548,2 µg/mL
same,MIC Coagulase Negative Staphylococcus (GC 4549),Staphylococcus sp.; strain GC 4549,2 µg/mL
same,MIC Coagulase Negative Staphylococcus (GC 4551),Staphylococcus sp.; strain GC 4551,4 µg/mL
same,MIC Coagulase Negative Staphylococcus (GC 6257),Staphylococcus sp.; strain GC 6257,1 µg/mL
same,"median effective dose (ED50), Staphylococcus aureus-SMITH (GC 4543)",[1],0.5 mg/kg
same,"Anatomical Pathology (Day 10), Heart",[2],0
same,"Anatomical Pathology (Day 10), Kidney",[2],+++

# Reference: patent US8247211B2, “Glycopeptide antibiotics” (American Cyanamid Company, priority 2001, dated 2012)
